From BindingDB's records for doi:10.1021/jm049465g (National Institute On Drug Abuse-Intramural Research Program, 2005)

Experiment: Inhibition of quinpirole stimulation of mitogenesis at human dopamine D2 receptors expressed in Chinese hamster ovary cells

Going from `COc1ccc(C(=O)NC/C=C/CN2CCN(c3cccc(Cl)c3Cl)CC2)cc1` [N-{4-[4-(2,3-Dichloro-phenyl)-piperazin-1-yl]-but-2-enyl}-4-methoxy-benzamide] to `O=C(NC/C=C/CN1CCN(c2cccc(Cl)c2Cl)CC1)c1ccc(I)cc1` [N-{4-[4-(2,3-Dichloro-phenyl)-piperazin-1-yl]-but-2-enyl}-4-iodo-benzamide], the EC50 rises from 61.8 nM to 162 nM (2.6-fold). The first is the more potent here.

For `O=C(NC/C=C/CN1CCN(c2cccc(Cl)c2Cl)CC1)c1ccc([N+](=O)[O-])cc1` [N-{(E)-4-[4-(2,3-Dichloro-phenyl)-piperazin-1-yl]-but-2-enyl}-4-nitro-benzamide], the EC50 was 13.8 nM.
